Laboratory results from patent US20230165829A1, “FLAVAGLINE DERIVATIVES FOR INHIBITION OF KRAS ONCOGENE ACTIVATION” (KHR BIOTEC GMBH, priority 2018, published 2023).
Read-outs that look alike come from different tables or passages of the source.

What was measured:
RAS [1] = test: Active Ras pull down assay (CRAF-RBD, Ral-GDS-RA) after EGF stimulation in HeLa cells; format: cell-based; settings: pre-treatment at 200 nM, 1 h before EGF stimulation
RAS [2] = settings: cited from earlier work

| SMILES | inactivation of KRAS (inhibition of KRAS activation), relative luminescence vs DMSO (KRAS G12V) | also measured |
| --- | --- | --- |
| COc1cc(OC)c2c(c1)O[C@@]1(c3ccc(Br)cc3)[C@H](c3ccccc3)C[C@@H](O)[C@@]21O [FL3] | inactivation of KRAS |  |
| COC(=O)[C@H]1[C@@H](O)[C@@]2(O)c3c(OC)cc(OC)cc3O[C@@]2(c2ccc(Br)cc2)[C@@H]1c1ccccc1 [FL10] | inactivation of KRAS |  |
| CNC(=O)[C@H]1[C@@H](O)[C@@]2(O)c3c(OC)cc(OC)cc3O[C@@]2(c2ccc(Br)cc2)[C@@H]1c1ccccc1 [FL13] | inactivation of KRAS |  |
| COc1ccc([C@@]23Oc4cc(OC)cc(OC)c4[C@]2(O)[C@H](O)C[C@H]3c2cccc(F)c2)cc1 [FL15] | inactivation of KRAS |  |
| COc1ccc([C@@]23Oc4cc(OC)cc(OC)c4[C@]2(O)[C@H](OC=O)C[C@H]3c2ccccc2)cc1 [FL19] | inactivation of KRAS |  |
| COc1cc(OC)c2c(c1)O[C@@]1(c3ccc(Br)cc3)[C@H](c3cccc(F)c3)C[C@H](NC(=O)N(C)C)[C@@]21O [FL37] | inactivation of KRAS |  |
| COc1cc(OC)c2c(c1)O[C@@]1(c3ccc(Br)cc3)[C@H](c3cccc(F)c3)C[C@H](NC(N)=O)[C@@]21O [FL40] | inactivation of KRAS |  |
| COc1cc(OC)c2c(c1)O[C@@]1(c3ccc(Cl)cc3)[C@H](c3cccc(F)c3)C[C@H](NC(=O)N(C)C)[C@@]21O [FL42] | inactivation of KRAS |  |
| CNCCOc1ccc2c(c1)O[C@@]1(c3ccc(Cl)cc3)[C@H](c3ccccc3)C[C@@H](O)[C@@]21O [IMD-26260] | inactivation of KRAS |  |
| COc1ccc([C@@]23Oc4cc(OC)cc(OC)c4[C@]2(O)[C@H](O)[C@H](C(=O)N(C)C)[C@H]3c2ccccc2)cc1 [rocaglamide] |  | activation of RAS in response to EGF (GTP-loaded Ras pull down) (RAS [1]): inhibited; inactivation of KRAS (inhibition of KRAS activation), relative luminescence vs DMSO (KRAS G12V; 100 nM compounds for 4 h, KRAS G12V transfected HeLa cells, similar results with KRAS WT + EGF (100 ng/ml, 30 min)): inactivation of KRAS; RAS-activation in KRAS-mutated cell lines (RAS [2]): inhibits RAS-activation; specificity for KRAS versus isoforms HRAS and NRAS (RAS [2]): not specific enough to differentiate between KRAS and a closely related isoform HRAS and NRAS |
